Data from publication PMC5949348, “The Metabolism of Separase Inhibitor Sepin-1 in Human, Mouse, and Rat Liver Microsomes” (Frontiers in Pharmacology, 2018).

Assays:
CYP2B6 = target: T1, CYP2B6 (Homo sapiens, UniProt P20813); assay: Sepin-1 metabolism by recombinant CYP2B6; type: in vitro ADME; settings: 30 μM sepin-1, 2 pmol cDNA-expressed enzyme, NADPH 1.0 mM, 30 min; unit not given, highest enzyme per metabolite = 100.0
T1 construct: purchased XenoTech
T1 sequence (P20813 1-491): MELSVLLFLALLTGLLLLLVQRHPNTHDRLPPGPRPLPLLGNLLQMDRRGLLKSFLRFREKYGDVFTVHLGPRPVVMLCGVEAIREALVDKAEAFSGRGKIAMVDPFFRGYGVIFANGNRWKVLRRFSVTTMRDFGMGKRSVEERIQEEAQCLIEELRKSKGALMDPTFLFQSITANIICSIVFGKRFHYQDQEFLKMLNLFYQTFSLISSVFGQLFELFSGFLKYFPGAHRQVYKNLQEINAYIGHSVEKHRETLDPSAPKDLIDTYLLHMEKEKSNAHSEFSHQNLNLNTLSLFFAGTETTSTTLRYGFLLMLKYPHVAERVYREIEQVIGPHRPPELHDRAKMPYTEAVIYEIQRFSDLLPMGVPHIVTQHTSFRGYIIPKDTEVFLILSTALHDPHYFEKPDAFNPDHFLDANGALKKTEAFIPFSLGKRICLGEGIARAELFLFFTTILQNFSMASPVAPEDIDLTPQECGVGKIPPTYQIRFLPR
Description: (§1) Incubations were conducted in 1× phosphate-buffered saline (1× PBS, pH 7.4), containing 30 μM sepin-1, 1.0 mg HLM, MLM, RLM, or 2 pmol of each cDNA-expressed P450 enzyme (control, CYP1A2, 2A6, 2B6, 2C8, 2C9, 2C19, 2D6, 2E1, and CYP3A4) in a final volume of 190 μl. After 5 min of pre-incubation at 37°C, the reaction was initiated by adding 10 μl of 20 mM NADPH (final concentration 1.0 mM) and continued for 30 min, with shaking at 37°C. Incubations lacking NADPH served as controls. Reactions were terminated with 200 μl of ice-cold methanol, followed by vortexing for 30 s and centrifuging at 15,000 × g for 15 min. Each supernatant was transferred to an auto sampler vial, and 5.0 μl was injected on to UHPLC coupled with a QTOFMS system for metabolite analysis. Incubations were conducted in quadruplicate for HLM, in triplicate for MLM and RLM, and in duplicate for cDNA-expressed P450 enzymes.
(§2) The separation of sepin-1 and its metabolites was achieved using a 1260 Infinity Binary LC System (Agilent Technologies, Santa Clara, CA, United States) equipped with 100 mm × 2.1 mm (Agilent XDB C18) column. The column temperature was maintained at 40°C. The flow rate was 0.3 ml/min, with a gradient ranging from 2% to 98% aqueous acetonitrile containing 0.1% formic acid in a 15-min run. QTOFMS was operated in a positive mode with electrospray ionization. […]

CYP2A6 = system: T2, CYP2A6; assay: Sepin-1 metabolism by recombinant CYP2A6; type: in vitro ADME, human; settings: 30 μM sepin-1, 2 pmol cDNA-expressed enzyme, NADPH 1.0 mM, 30 min; unit not given, highest enzyme per metabolite = 100.0
T2 construct: purchased XenoTech
Description: as §1, §2

CYP2C9 = target: T3, CYP2C9 (Homo sapiens, UniProt P11712); assay: Sepin-1 metabolism by recombinant CYP2C9; type: in vitro ADME; settings: 30 μM sepin-1, 2 pmol cDNA-expressed enzyme, NADPH 1.0 mM, 30 min; unit not given, highest enzyme per metabolite = 100.0
T3 construct: purchased XenoTech
Description: as §1, §2

CYP2D6 = target: T4, CYP2D6 (Homo sapiens, UniProt P10635); assay: Sepin-1 metabolism by recombinant CYP2D6; type: in vitro ADME; settings: 30 μM sepin-1, 2 pmol cDNA-expressed enzyme, NADPH 1.0 mM, 30 min; unit not given, highest enzyme per metabolite = 100.0
T4 construct: purchased XenoTech
Description: as §1, §2

[1] = Sepin-1 metabolism with cDNA-expressed P450 control; type: in vitro ADME, human; settings: 30 μM sepin-1, control enzyme preparation, NADPH 1.0 mM, 30 min; unit not given, highest enzyme per metabolite = 100.0
Description: as §1, §2

CYP2C19 = target: T5, CYP2C19 (Homo sapiens, UniProt P33261); assay: Sepin-1 metabolism by recombinant CYP2C19; type: in vitro ADME; settings: 30 μM sepin-1, 2 pmol cDNA-expressed enzyme, NADPH 1.0 mM, 30 min; unit not given, highest enzyme per metabolite = 100.0
T5 construct: purchased XenoTech
Description: as §1, §2

CYP2C8 = target: T6, CYP2C8 (Homo sapiens, UniProt P10632); assay: Sepin-1 metabolism by recombinant CYP2C8; type: in vitro ADME; settings: 30 μM sepin-1, 2 pmol cDNA-expressed enzyme, NADPH 1.0 mM, 30 min; unit not given, highest enzyme per metabolite = 100.0
T6 construct: purchased XenoTech
T6 sequence (P10632 1-490): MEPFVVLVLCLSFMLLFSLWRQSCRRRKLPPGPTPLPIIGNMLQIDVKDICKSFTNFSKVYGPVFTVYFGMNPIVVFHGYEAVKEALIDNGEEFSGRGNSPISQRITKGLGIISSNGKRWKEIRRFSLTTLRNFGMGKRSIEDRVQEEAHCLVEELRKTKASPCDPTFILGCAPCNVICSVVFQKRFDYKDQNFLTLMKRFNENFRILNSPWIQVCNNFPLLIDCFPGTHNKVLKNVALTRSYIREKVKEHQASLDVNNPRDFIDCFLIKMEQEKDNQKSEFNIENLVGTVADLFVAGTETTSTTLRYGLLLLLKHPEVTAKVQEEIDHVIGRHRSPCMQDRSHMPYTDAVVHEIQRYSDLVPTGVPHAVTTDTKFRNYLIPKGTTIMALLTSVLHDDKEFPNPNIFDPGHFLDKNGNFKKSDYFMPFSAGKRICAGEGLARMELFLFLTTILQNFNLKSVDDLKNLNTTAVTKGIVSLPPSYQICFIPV
Description: as §1, §2

CYP2E1 = system: T7, CYP2E1; assay: Sepin-1 metabolism by recombinant CYP2E1; type: in vitro ADME, human; settings: 30 μM sepin-1, 2 pmol cDNA-expressed enzyme, NADPH 1.0 mM, 30 min; unit not given, highest enzyme per metabolite = 100.0
T7 construct: purchased XenoTech
Description: as §1, §2

[2] = Metabolism of sepin-1 in HLM, MLM and RLM (metabolite profiling, UHPLC-QTOFMS); type: in vitro ADME, human, mouse, rat; settings: 30 min; for Source (liver microsomes in which the metabolite was found): 30 μM sepin-1, 1.0 mg microsomes, NADPH 1.0 mM, 37°C; for Relative abundance of metabolite across HLM, MLM and RLM (in words): 30 μM sepin-1, NADPH 1.0 mM
Description: as §1
(§3) The separation of sepin-1 and its metabolites was achieved using a 1260 Infinity Binary LC System (Agilent Technologies, Santa Clara, CA, United States) equipped with 100 mm × 2.1 mm (Agilent XDB C18) column. The column temperature was maintained at 40°C. The flow rate was 0.3 ml/min, with a gradient ranging from 2% to 98% aqueous acetonitrile containing 0.1% formic acid in a 15-min run. QTOFMS was operated in a positive mode with electrospray ionization. Ultra-high pure nitrogen was applied as the drying gas (12 l/min) and the collision gas. The drying gas temperature was set at 325°C, and the nebulizer pressure was kept at 35 psi. The capillary voltages were set at 3.5 kV. During MS, real-time mass correction and accurate mass were achieved by continuously measuring standard reference ions at m/z 121.0508 and 922.0098 in the positive mode. The MS/MS of sepin-1 metabolites was performed in a targeted mode with a default isolation width of m/z 4 and collision energy ramp ranging from 10 to 45 V.
Mass chromatograms and mass spectra were acquired by MassHunter Workstation Data Acquisition Software (Agilent, Santa Clara, CA, United States) in centroid and profile formats from m/z 100 to 1000. The acquisition rate was set as 1.5 spectra per second. Centroid and integrated mass chromatographic data were processed by Mass Profinder and Mass Profiler Professional Software (Agilent, Santa Clara, CA, United States) to generate a multivariate data matrix. The corresponding data matrices were then exported into SIMCA13 (Umetrics, Kinnelon, NJ, United States) for multivariate data analysis. OPLS-DA was conducted on Pareto-scaled data. For the QQQMS data, QQQ Quantitative Analysis Software (Agilent, Santa Clara, CA, United States) was used for metabolite analysis. […] Statistical differences between two groups were determined by Student’s t-test.

CYP3A4 = target: T8, CYP3A4 (Homo sapiens, UniProt P08684); assay: Sepin-1 metabolism by recombinant CYP3A4; type: in vitro ADME; settings: 30 μM sepin-1, 2 pmol cDNA-expressed enzyme, NADPH 1.0 mM, 30 min; unit not given, highest enzyme per metabolite = 100.0
T8 construct: purchased XenoTech
Description: as §1, §2

CYP1A2 = target: T9, CYP1A2 (Homo sapiens, UniProt P05177); assay: Sepin-1 metabolism by recombinant CYP1A2; type: in vitro ADME; settings: 30 μM sepin-1, 2 pmol cDNA-expressed enzyme, NADPH 1.0 mM, 30 min; unit not given, highest enzyme per metabolite = 100.0
T9 construct: purchased XenoTech
T9 sequence (P05177 1-516): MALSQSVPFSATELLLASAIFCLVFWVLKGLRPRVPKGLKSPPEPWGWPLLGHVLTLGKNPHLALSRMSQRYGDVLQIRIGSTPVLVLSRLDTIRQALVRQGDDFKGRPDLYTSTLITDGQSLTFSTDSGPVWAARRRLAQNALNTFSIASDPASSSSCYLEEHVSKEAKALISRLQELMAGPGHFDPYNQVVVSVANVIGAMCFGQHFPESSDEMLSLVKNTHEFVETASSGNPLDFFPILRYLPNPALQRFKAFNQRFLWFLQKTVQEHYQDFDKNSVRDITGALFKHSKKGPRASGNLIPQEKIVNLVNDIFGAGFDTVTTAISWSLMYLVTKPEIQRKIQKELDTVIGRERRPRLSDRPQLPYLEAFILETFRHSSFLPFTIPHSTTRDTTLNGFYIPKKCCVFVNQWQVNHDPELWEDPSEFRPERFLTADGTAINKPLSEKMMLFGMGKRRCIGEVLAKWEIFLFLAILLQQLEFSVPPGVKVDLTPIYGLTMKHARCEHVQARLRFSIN
Description: as §1, §2

[3] = Metabolism of sepin-1 in human liver microsomes; type: in vitro ADME; settings: HLM, 30 μM sepin-1, with or without NADPH 1.0 mM
Description: as §1
as §3, with “During MS, real-time mass correction and accurate mass were achieved by continuously measuring standard reference ions at m/z 121.0508 and 922.0098 in the positive mode. The MS/MS of sepin-1 metabolites was performed in a targeted mode with a default isolation width of m/z 4 and collision energy ramp ranging from 10 to 45 V.” left out
Mass chromatograms and mass spectra were acquired by MassHunter Workstation Data Acquisition Software (Agilent, Santa Clara, CA, United States) in centroid and profile formats from m/z 100 to 1000. […] For the QQQMS data, QQQ Quantitative Analysis Software (Agilent, Santa Clara, CA, United States) was used for metabolite analysis. […] Statistical differences between two groups were determined by Student’s t-test.

T4 sequence (P10635 whole entry): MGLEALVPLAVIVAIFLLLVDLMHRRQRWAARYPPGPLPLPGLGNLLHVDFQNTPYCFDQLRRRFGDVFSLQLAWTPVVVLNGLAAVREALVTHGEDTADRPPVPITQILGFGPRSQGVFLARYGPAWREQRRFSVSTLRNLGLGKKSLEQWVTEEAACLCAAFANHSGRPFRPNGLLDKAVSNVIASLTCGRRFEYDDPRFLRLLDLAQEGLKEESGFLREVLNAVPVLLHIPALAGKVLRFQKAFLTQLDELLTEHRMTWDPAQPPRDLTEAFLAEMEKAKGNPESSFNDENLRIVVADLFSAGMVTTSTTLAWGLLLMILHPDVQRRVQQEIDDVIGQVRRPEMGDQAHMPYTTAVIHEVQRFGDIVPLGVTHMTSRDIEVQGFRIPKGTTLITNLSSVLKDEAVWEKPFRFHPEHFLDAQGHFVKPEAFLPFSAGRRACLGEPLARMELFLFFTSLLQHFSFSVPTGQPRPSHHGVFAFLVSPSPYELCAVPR
T8 sequence (P08684 whole entry): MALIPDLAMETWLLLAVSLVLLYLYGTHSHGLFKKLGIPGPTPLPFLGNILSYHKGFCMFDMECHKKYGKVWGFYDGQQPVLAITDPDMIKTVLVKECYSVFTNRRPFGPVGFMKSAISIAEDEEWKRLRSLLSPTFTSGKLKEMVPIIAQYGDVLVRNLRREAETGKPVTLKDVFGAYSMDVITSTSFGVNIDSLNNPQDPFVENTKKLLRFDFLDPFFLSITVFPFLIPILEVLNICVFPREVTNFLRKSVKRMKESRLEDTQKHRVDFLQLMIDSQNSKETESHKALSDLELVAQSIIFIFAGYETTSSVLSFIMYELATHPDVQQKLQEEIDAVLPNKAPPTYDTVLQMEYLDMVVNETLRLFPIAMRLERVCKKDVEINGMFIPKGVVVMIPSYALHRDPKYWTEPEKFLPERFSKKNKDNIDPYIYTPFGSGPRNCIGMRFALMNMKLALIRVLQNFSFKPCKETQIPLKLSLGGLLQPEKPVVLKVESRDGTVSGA
T3 sequence (P11712 whole entry): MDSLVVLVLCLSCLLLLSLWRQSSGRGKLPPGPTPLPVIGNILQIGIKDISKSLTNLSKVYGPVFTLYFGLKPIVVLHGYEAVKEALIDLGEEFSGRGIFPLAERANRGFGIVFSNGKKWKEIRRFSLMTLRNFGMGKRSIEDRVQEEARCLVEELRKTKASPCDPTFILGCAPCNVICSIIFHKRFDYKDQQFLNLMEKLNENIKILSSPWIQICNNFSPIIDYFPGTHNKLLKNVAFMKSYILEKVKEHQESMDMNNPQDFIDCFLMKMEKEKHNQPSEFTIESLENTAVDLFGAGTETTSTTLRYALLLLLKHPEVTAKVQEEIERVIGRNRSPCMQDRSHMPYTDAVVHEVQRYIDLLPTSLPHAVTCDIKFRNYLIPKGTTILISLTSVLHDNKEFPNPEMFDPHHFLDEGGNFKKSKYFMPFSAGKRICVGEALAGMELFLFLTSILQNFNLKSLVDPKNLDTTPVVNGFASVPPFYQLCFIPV
T5 sequence (P33261 whole entry): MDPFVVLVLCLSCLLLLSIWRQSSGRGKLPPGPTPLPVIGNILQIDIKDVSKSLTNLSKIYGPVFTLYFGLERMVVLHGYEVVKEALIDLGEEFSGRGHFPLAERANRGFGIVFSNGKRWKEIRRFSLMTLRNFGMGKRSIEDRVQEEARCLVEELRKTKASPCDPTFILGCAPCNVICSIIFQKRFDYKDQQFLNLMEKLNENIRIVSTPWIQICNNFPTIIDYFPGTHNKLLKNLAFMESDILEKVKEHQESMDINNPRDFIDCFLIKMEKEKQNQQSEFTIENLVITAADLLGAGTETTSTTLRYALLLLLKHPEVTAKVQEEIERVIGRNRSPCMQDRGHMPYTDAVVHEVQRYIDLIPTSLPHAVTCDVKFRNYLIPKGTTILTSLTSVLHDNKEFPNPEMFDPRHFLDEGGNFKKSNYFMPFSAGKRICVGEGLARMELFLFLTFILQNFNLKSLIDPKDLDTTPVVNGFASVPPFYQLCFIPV

CC1(C)Nc2ccc([N+](=O)[O-])cc2N1 [M1]
Formation of metabolite by CYP2B6 (Role of P450s in the metabolism of sepin-1) (CYP2B6): 91.9 | Formation of metabolite by CYP2A6 (Role of P450s in the metabolism of sepin-1) (CYP2A6): 90.8 | Formation of metabolite by CYP2C9 (Role of P450s in the metabolism of sepin-1) (CYP2C9): 90.4 | Formation of metabolite by CYP2D6 (Role of P450s in the metabolism of sepin-1) (CYP2D6): 96.9 | Formation of metabolite, Control (Role of P450s in the metabolism of sepin-1) [1]: 79.5 | Formation of metabolite by CYP2C19 (Role of P450s in the metabolism of sepin-1) (CYP2C19): 90.8 | Formation of metabolite by CYP2C8 (Role of P450s in the metabolism of sepin-1) (CYP2C8): 91.3 | Formation of metabolite by CYP2E1 (Role of P450s in the metabolism of sepin-1) (CYP2E1): 89.9 | Source (liver microsomes in which the metabolite was found) [2]: HLM, MLM, RLM | Relative abundance of metabolite across HLM, MLM and RLM (in words) [2]: dominant metabolites in all the three species | Formation of metabolite by CYP3A4 (Role of P450s in the metabolism of sepin-1) (CYP3A4): 100.0 | Formation of metabolite by CYP1A2 (Role of P450s in the metabolism of sepin-1) (CYP1A2): 86.3 | NADPH dependence of metabolite formation [3]: NADPH dependent

CC1(C)[N+]([O-])=c2ccc(N)cc2=[N+]1[O-] [M2]
Formation of metabolite by CYP2B6 (Role of P450s in the metabolism of sepin-1) (CYP2B6): 85.9 | Formation of metabolite by CYP2A6 (Role of P450s in the metabolism of sepin-1) (CYP2A6): 76.1 | Formation of metabolite by CYP2C9 (Role of P450s in the metabolism of sepin-1) (CYP2C9): 57.2 | Formation of metabolite by CYP2D6 (Role of P450s in the metabolism of sepin-1) (CYP2D6): 100.0 | Formation of metabolite, Control (Role of P450s in the metabolism of sepin-1) [1]: 41.5 | Formation of metabolite by CYP2C19 (Role of P450s in the metabolism of sepin-1) (CYP2C19): 67.5 | Formation of metabolite by CYP2C8 (Role of P450s in the metabolism of sepin-1) (CYP2C8): 63.6 | Formation of metabolite by CYP2E1 (Role of P450s in the metabolism of sepin-1) (CYP2E1): 53.2 | Source (liver microsomes in which the metabolite was found) [2]: HLM, MLM, RLM | Relative abundance of metabolite across HLM, MLM and RLM (in words) [2]: dominant metabolites in all the three species | Formation of metabolite by CYP3A4 (Role of P450s in the metabolism of sepin-1) (CYP3A4): 95.3 | Formation of metabolite by CYP1A2 (Role of P450s in the metabolism of sepin-1) (CYP1A2): 50.5 | NADPH dependence of metabolite formation [3]: NADPH dependent
